Source: EP0908457B1, “3-(1,2-benzisothiazol- and isoxazol-5-Y1)-2,4(1H,3H)-pyrimidinedione or thione and 3-(1,2-benzisothiazol- and isoxazol-5-y1)-4(3H)-pyrimidinone or thione herbicidal agents” (BASF AKTIENGESELLSCHAFT, priority 1997, dated 1999)

What was measured:
[1] = test system: Oryza sativa, (L.) Tebonnet; assay: Rice tolerance to post-transplant applications under flooded paddy conditions (Example 187), ORYSAT (Rice, Tebonnet); settings: for ORYSAT herbicidal effect rating / herbicidal effect rating ORYSAT / herbicidal effect rating, ORYSAT (rice tolerance): rated three to four weeks after treatment; for ORYSAT: herbicidal effect rating 0-9, three to four weeks after treatment
[2] = test system: Echinochloa oryzoides (Ard.) Fritsch.; assay: Preemergence weed control under flooded paddy conditions, ECHORC (Watergrass (Calif.)); format: in vivo; settings: flooded paddy; for ECHORC herbicidal effect rating / herbicidal effect rating, ECHORC: preemergence, rated three to four weeks after treatment; for ECHORC: preemergence weeds, herbicidal effect rating 0-9, three to four weeks after treatment; on herbicidal effect rating, ECHORC: meaning of each grade not given here
[3] = test system: Monochoria vaginalis, Presl.; assay: Preemergence weed control under flooded paddy conditions, MOOVA (Monochoria); format: in vivo; settings: flooded paddy; for MOOVA herbicidal effect rating / herbicidal effect rating, MOOVA: preemergence, rated three to four weeks after treatment; for MOOVA: preemergence weeds, herbicidal effect rating 0-9, three to four weeks after treatment; on herbicidal effect rating, MOOVA: meaning of each grade not given here
Sagittaria pygmaea, L. = assay: Preemergence weed control under flooded paddy conditions, SAGPY (Arrowhead (Pygmaea)); format: in vivo; settings: flooded paddy; for SAGPY herbicidal effect rating / herbicidal effect rating, SAGPY: preemergence, rated three to four weeks after treatment; for SAGPY: preemergence weeds, herbicidal effect rating 0-9, three to four weeks after treatment; on herbicidal effect rating, SAGPY: meaning of each grade not given here
[4] = test system: Cyperus serotinus, Rottb.; assay: Preemergence weed control under flooded paddy conditions, CYPSE (Flatsedge); format: in vivo; settings: for CYPSE herbicidal effect rating / herbicidal effect rating, CYPSE: preemergence, rated three to four weeks after treatment; for CYPSE: preemergence weeds, herbicidal effect rating 0-9, three to four weeks after treatment; on herbicidal effect rating, CYPSE: meaning of each grade not given here
Cyperus iria = assay: Preemergence weed control under flooded paddy conditions, CYPIR (Rice Flatsedge); format: in vivo; settings: flooded paddy; for CYPIR herbicidal effect rating / herbicidal effect rating, CYPIR: preemergence, rated three to four weeks after treatment; for CYPIR: preemergence weeds, herbicidal effect rating 0-9, three to four weeks after treatment; on herbicidal effect rating, CYPIR: meaning of each grade not given here

**Q.** Which results are given for `Cc1nsc2ccc(-n3c(=O)cc(C(F)(F)F)n(CC#N)c3=O)cc12` [Example 213, 3,4-Dihydro-3-(3-methyl-1,2-benzisothiazol-5-yl)-2,4-dioxo-6-(trifluoromethyl)-1(2H)-pyrimidineacetonitrile]?
**A.** ORYSAT herbicidal effect rating ([1]; Rate 0.0313 kg/ha): 3.0; ORYSAT herbicidal effect rating ([1]; Rate 0.0625 kg/ha): 4.0; ORYSAT herbicidal effect rating ([1]; Rate 0.1250 kg/ha): 6.0; ORYSAT herbicidal effect rating ([1]; Rate 0.2500 kg/ha): 7.0; ECHORC herbicidal effect rating ([2]; Rate 0.0313 kg/ha): 0.0; ECHORC herbicidal effect rating ([2]; Rate 0.0625 kg/ha): 0.0; ECHORC herbicidal effect rating ([2]; Rate 0.1250 kg/ha): 0.0; ECHORC herbicidal effect rating ([2]; Rate 0.2500 kg/ha): 0.0; MOOVA herbicidal effect rating ([3]; Rate 0.0313 kg/ha): 0.0; MOOVA herbicidal effect rating ([3]; Rate 0.0625 kg/ha): 0.0; MOOVA herbicidal effect rating ([3]; Rate 0.1250 kg/ha): 0.0; MOOVA herbicidal effect rating ([3]; Rate 0.2500 kg/ha): 2.0; SAGPY herbicidal effect rating (Sagittaria pygmaea, L.; Rate 0.0313 kg/ha): 0.0; SAGPY herbicidal effect rating (Sagittaria pygmaea, L.; Rate 0.0625 kg/ha): 0.0; SAGPY herbicidal effect rating (Sagittaria pygmaea, L.; Rate 0.1250 kg/ha): 0.0; SAGPY herbicidal effect rating (Sagittaria pygmaea, L.; Rate 0.2500 kg/ha): 0.0; CYPSE herbicidal effect rating ([4]; Rate 0.0313 kg/ha): 0.0; CYPSE herbicidal effect rating ([4]; Rate 0.0625 kg/ha): 0.0; CYPSE herbicidal effect rating ([4]; Rate 0.1250 kg/ha): 0.0; CYPSE herbicidal effect rating ([4]; Rate 0.2500 kg/ha): 0.0; CYPIR herbicidal effect rating (Cyperus iria; Rate 0.0313 kg/ha): 0.0; CYPIR herbicidal effect rating (Cyperus iria; Rate 0.0625 kg/ha): 0.0; CYPIR herbicidal effect rating (Cyperus iria; Rate 0.1250 kg/ha): 0.0

**Q.** For `Cn1c(C(F)(F)F)cc(=O)n(-c2ccc3snc(COCc4ccc(Cl)cc4)c3c2)c1=O` [Example 584, 2,4(1H,3H)-Pyrimidinedione, 3-{3-{[(p-chlorobenzyl)oxy]methyl}-1,2-benzisothiazol-5-yl}-1-methyl-6-(trifluoromethyl)-], which “herbicidal effect rating ORYSAT” value ([1]; Rate 0.0320 kg/ha) is on record?
**A.** 0.0

**Q.** What about the “herbicidal effect rating ORYSAT” value ([1]; Rate 0.0620 kg/ha) of the same compound?
**A.** 1.0

**Q.** And the “herbicidal effect rating ORYSAT” value ([1]; Rate 0.1250 kg/ha)?
**A.** 1.0

**Q.** And the “herbicidal effect rating ORYSAT” value ([1]; Rate 0.2500 kg/ha)?
**A.** 3.5

**Q.** And the “herbicidal effect rating, ECHORC” value ([2]; Rate 0.0320 kg/ha)?
**A.** 6.0

**Q.** And the “herbicidal effect rating, ECHORC” value ([2]; Rate 0.0620 kg/ha)?
**A.** 9.0

**Q.** What about the “herbicidal effect rating, ECHORC” value ([2]; Rate 0.1250 kg/ha) of the same compound?
**A.** 9.0

**Q.** What about the “herbicidal effect rating, ECHORC” value ([2]; Rate 0.2500 kg/ha) of the same compound?
**A.** 9.0

**Q.** And the “herbicidal effect rating, MOOVA” value ([3]; Rate 0.0320 kg/ha)?
**A.** 3.0

**Q.** What about the “herbicidal effect rating, MOOVA” value ([3]; Rate 0.0620 kg/ha) of the same compound?
**A.** 8.0

**Q.** And the “herbicidal effect rating, MOOVA” value ([3]; Rate 0.1250 kg/ha)?
**A.** 9.0

**Q.** And the “herbicidal effect rating, MOOVA” value ([3]; Rate 0.2500 kg/ha)?
**A.** 9.0

**Q.** What about the “herbicidal effect rating, SAGPY” value (Sagittaria pygmaea, L.; Rate 0.0320 kg/ha) of the same compound?
**A.** 0.0

**Q.** And the “herbicidal effect rating, SAGPY” value (Sagittaria pygmaea, L.; Rate 0.0620 kg/ha)?
**A.** 1.5

**Q.** What about the “herbicidal effect rating, SAGPY” value (Sagittaria pygmaea, L.; Rate 0.1250 kg/ha) of the same compound?
**A.** 4.0

**Q.** And the “herbicidal effect rating, SAGPY” value (Sagittaria pygmaea, L.; Rate 0.2500 kg/ha)?
**A.** 2.0

**Q.** What about the “herbicidal effect rating, CYPSE” value ([4]; Rate 0.0320 kg/ha) of the same compound?
**A.** 0.0

**Q.** What about the “herbicidal effect rating, CYPSE” value ([4]; Rate 0.0620 kg/ha) of the same compound?
**A.** 0.0

**Q.** What about the “herbicidal effect rating, CYPSE” value ([4]; Rate 0.2500 kg/ha) of the same compound?
**A.** 0.0

**Q.** And the “herbicidal effect rating, CYPIR” value (Cyperus iria; Rate 0.0320 kg/ha)?
**A.** 1.5

**Q.** What about the “herbicidal effect rating, CYPIR” value (Cyperus iria; Rate 0.0620 kg/ha) of the same compound?
**A.** 6.0

**Q.** And the “herbicidal effect rating, CYPIR” value (Cyperus iria; Rate 0.1250 kg/ha)?
**A.** 9.0

**Q.** And the “herbicidal effect rating, CYPIR” value (Cyperus iria; Rate 0.2500 kg/ha)?
**A.** 9.0

**Q.** For `Cc1ccc(OCC(=O)OC(C)(C)C)c(-c2nsc3ccc(-n4c(=O)cc(C(F)(F)F)n(C)c4=O)cc23)c1` [Example 68, tert -Butyl {{2-{5-[3,6-dihydro-3-methyl-2,6-dioxo-4-(trifluoromethyl)-1(2H)-pyrimidinyl]-1,2-benzisothiazol-3-yl}-p-tolyl}oxy}acetate], which “herbicidal effect rating, ORYSAT (rice tolerance)” value (shortened to “herbicidal effect rating, ORYSAT”) ([1]; 0.0313 kg/ha) is on record?
**A.** 0.5

**Q.** What about the “herbicidal effect rating, ORYSAT” value ([1]; 0.0625 kg/ha) of the same compound?
**A.** 1.0

**Q.** What about the “herbicidal effect rating, ORYSAT” value ([1]; 0.1250 kg/ha) of the same compound?
**A.** 1.5

**Q.** And the “herbicidal effect rating, ORYSAT” value ([1]; 0.2500 kg/ha)?
**A.** 1.0

**Q.** What about the “herbicidal effect rating, ECHORC” value ([2]; 0.0313 kg/ha) of the same compound?
**A.** 7.5

**Q.** What about the “herbicidal effect rating, ECHORC” value ([2]; 0.0625 kg/ha) of the same compound?
**A.** 9.0

**Q.** And the “herbicidal effect rating, ECHORC” value ([2]; 0.1250 kg/ha)?
**A.** 9.0

**Q.** And the “herbicidal effect rating, ECHORC” value ([2]; 0.2500 kg/ha)?
**A.** 9.0

**Q.** And the “herbicidal effect rating, MOOVA” value ([3]; 0.0313 kg/ha)?
**A.** 9.0

**Q.** And the “herbicidal effect rating, MOOVA” value ([3]; 0.0625 kg/ha)?
**A.** 9.0

**Q.** What about the “herbicidal effect rating, MOOVA” value ([3]; 0.1250 kg/ha) of the same compound?
**A.** 9.0

**Q.** What about the “herbicidal effect rating, MOOVA” value ([3]; 0.2500 kg/ha) of the same compound?
**A.** 9.0

**Q.** And the “herbicidal effect rating, SAGPY” value (Sagittaria pygmaea, L.; 0.0313 kg/ha)?
**A.** 0.0

**Q.** What about the “herbicidal effect rating, SAGPY” value (Sagittaria pygmaea, L.; 0.0625 kg/ha) of the same compound?
**A.** 0.0

**Q.** What about the “herbicidal effect rating, SAGPY” value (Sagittaria pygmaea, L.; 0.1250 kg/ha) of the same compound?
**A.** 2.0

**Q.** And the “herbicidal effect rating, SAGPY” value (Sagittaria pygmaea, L.; 0.2500 kg/ha)?
**A.** 2.0

**Q.** And the “herbicidal effect rating, CYPSE” value ([4]; 0.0313 kg/ha)?
**A.** 6.0

**Q.** What about the “herbicidal effect rating, CYPSE” value ([4]; 0.0625 kg/ha) of the same compound?
**A.** 7.0

**Q.** What about the “herbicidal effect rating, CYPSE” value ([4]; 0.2500 kg/ha) of the same compound?
**A.** 7.0

**Q.** What about the “herbicidal effect rating, CYPIR” value (Cyperus iria; 0.0313 kg/ha) of the same compound?
**A.** 7.0

**Q.** And the “herbicidal effect rating, CYPIR” value (Cyperus iria; 0.0625 kg/ha)?
**A.** 9.0

**Q.** What about the “herbicidal effect rating, CYPIR” value (Cyperus iria; 0.1250 kg/ha) of the same compound?
**A.** 9.0

**Q.** What about the “herbicidal effect rating, CYPIR” value (Cyperus iria; 0.2500 kg/ha) of the same compound?
**A.** 9.0

**Q.** `Cn1c(C(F)(F)F)cc(=O)n(-c2ccc3snc(C(=O)OCCCO)c3c2)c1=O` [Example 410, 1,2-Benzisothiazole-3-carboxylic acid, 5-[3,6-dihydro-3-methyl-2,6-dioxo-4-(trifluoromethyl)-1(2H)-pyrimidinyl]-, 3-hydroxypropyl ester] was tested. Which ORYSAT ([1]; 0.0320 kg/ha) did it give?
**A.** 0.0

**Q.** What about the ORYSAT ([1]; 0.0620 kg/ha) of the same compound?
**A.** 3.0

**Q.** What about the ORYSAT ([1]; 0.1250 kg/ha) of the same compound?
**A.** 5.0

**Q.** What about the ORYSAT ([1]; 0.2500 kg/ha) of the same compound?
**A.** 7.0

**Q.** What about the ECHORC ([2]; 0.0320 kg/ha) of the same compound?
**A.** 0.0

**Q.** And the ECHORC ([2]; 0.0620 kg/ha)?
**A.** 0.0

**Q.** What about the ECHORC ([2]; 0.1250 kg/ha) of the same compound?
**A.** 9.0

**Q.** What about the ECHORC ([2]; 0.2500 kg/ha) of the same compound?
**A.** 9.0

**Q.** What about the MOOVA ([3]; 0.0320 kg/ha) of the same compound?
**A.** 9.0

**Q.** And the MOOVA ([3]; 0.0620 kg/ha)?
**A.** 9.0

**Q.** And the MOOVA ([3]; 0.1250 kg/ha)?
**A.** 9.0

**Q.** And the MOOVA ([3]; 0.2500 kg/ha)?
**A.** 9.0

**Q.** What about the SAGPY (Sagittaria pygmaea, L.; 0.0320 kg/ha) of the same compound?
**A.** 3.0

**Q.** What about the SAGPY (Sagittaria pygmaea, L.; 0.0620 kg/ha) of the same compound?
**A.** 7.0

**Q.** What about the SAGPY (Sagittaria pygmaea, L.; 0.1250 kg/ha) of the same compound?
**A.** 9.0

**Q.** And the SAGPY (Sagittaria pygmaea, L.; 0.2500 kg/ha)?
**A.** 9.0

**Q.** And the CYPSE ([4]; 0.0320 kg/ha)?
**A.** 2.0

**Q.** And the CYPSE ([4]; 0.0620 kg/ha)?
**A.** 5.0

**Q.** And the CYPSE ([4]; 0.1250 kg/ha)?
**A.** 9.0

**Q.** And the CYPSE ([4]; 0.2500 kg/ha)?
**A.** 9.0

**Q.** And the CYPIR (Cyperus iria; 0.0320 kg/ha)?
**A.** 9.0

**Q.** And the CYPIR (Cyperus iria; 0.0620 kg/ha)?
**A.** 9.0

**Q.** And the CYPIR (Cyperus iria; 0.1250 kg/ha)?
**A.** 9.0

**Q.** And the CYPIR (Cyperus iria; 0.2500 kg/ha)?
**A.** 9.0
